# Assay results: ChEMBL document CHEMBL3044596, “Stagonolides G-I and modiolide A, nonenolides produced by Stagonospora cirsii, a potential mycoherbicide for Cirsium arvense” (J Nat Prod, 2008)
# Active and inactive are the calls of the source. The rule behind the calls is not given here.
# Assays:
# Cirsium arvense [1] = experiment: Herbicidal activity against Cirsium arvense (Canada thistle) assessed as induction of leaf necrosis at 1 mg/mL measured after 2 days post compound treatment by leaf disk-puncture bioassay; type: functional, organism-based
# Radish = experiment: Phytotoxicity activity against Raphanus sativus (radish) assessed as leaf necrotic lesion diameter at 1 mg/mL measured after 72 hr post compound treatment by leaf disk-puncture bioassay; type: organism-based; settings: in vivo
# Elymus repens = experiment: Phytotoxicity activity against Elymus repens (couch grass) assessed as leaf necrotic lesion diameter at 1 mg/mL measured after 72 hr post compound treatment by leaf disk-puncture bioassay; type: organism-based; settings: in vivo
# Cichorium intybus [2] = experiment: Phytotoxicity activity against Cichorium intybus (chicory) assessed as leaf necrotic lesion diameter at 1 mg/mL measured after 72 hr post compound treatment by leaf disk-puncture bioassay; type: organism-based; settings: in vivo
# Cirsium arvense [3] = experiment: Herbicidal activity against Cirsium arvense (Canada thistle) assessed as leaf necrotic lesion diameter at 1 mg/mL measured after 72 hr post compound treatment by leaf disk-puncture bioassay; type: functional
# Zea mays = experiment: Phytotoxicity activity against Zea mays (maize) assessed as leaf necrotic lesion diameter at 1 mg/mL measured after 72 hr post compound treatment by leaf disk-puncture bioassay; type: organism-based; settings: in vivo
# Aegopodium podagraria = experiment: Phytotoxicity activity against Aegopodium podagraria (bishop's weed) assessed as leaf necrotic lesion diameter at 1 mg/mL measured after 72 hr post compound treatment by leaf disk-puncture bioassay; type: organism-based; settings: in vivo
# Cirsium arvense [4] = experiment: Herbicidal activity against Cirsium arvense (Canada thistle) assessed as induction of leaf necrosis measured after 2 days post compound treatment by leaf disk-puncture bioassay; type: functional; settings: 48 h
# Cichorium intybus [5] = experiment: Inhibition of root growth in Cichorium intybus (chicory) seedlings soaked in 1 mg/mL compound solutions for 1 hr relative to untreated control; type: functional
# Trifolium pratense = experiment: Phytotoxicity activity against Trifolium pratense (red clover) assessed as leaf necrotic lesion diameter at 1 mg/mL measured after 72 hr post compound treatment by leaf disk-puncture bioassay; type: organism-based; settings: in vivo
# Solanum lycopersicum = experiment: Phytotoxicity activity against Solanum lycopersicum (tomato) assessed as leaf necrotic lesion diameter at 1 mg/mL measured after 72 hr post compound treatment by leaf disk-puncture bioassay; type: organism-based; settings: in vivo
compound,measurement,setting,value
C[C@@H]1C[C@H](O)/C=C/[C@@H](O)/C=C\C(=O)O1,Activity,Cirsium arvense [1],inactive
C[C@@H]1C[C@H](O)/C=C\[C@@H](O)/C=C\C(=O)O1,Activity,Cirsium arvense [1],inactive
C[C@H]1OC(=O)CC[C@H](O)C/C=C\[C@H]1O,Activity,Cirsium arvense [1],inactive
C[C@@H]1OC(=O)/C=C\[C@@H](O)/C=C/[C@@H]2O[C@H]12 [Stagonolide H],Activity,Radish,< 4 mm
same,Activity,Elymus repens,< 4 mm
same,Activity,Cichorium intybus [2],< 4 mm
same,Activity,Cirsium arvense [3],7.5 mm
same,Activity,Zea mays,< 4 mm
same,Activity,Aegopodium podagraria,< 4 mm
same,Activity,Cirsium arvense [1],Active
same,MIC,Cirsium arvense [4],150 µM
same,growth inhibition (GI),Cichorium intybus [5],85%
same,Activity,Trifolium pratense,< 4 mm
same,Activity,Solanum lycopersicum,< 4 mm
